For 57 compounds, inhibition results are on record in ChEMBL document CHEMBL3603819, “Targeting zoonotic viruses: Structure-based inhibition of the 3C-like protease from bat coronavirus HKU4--The likely reservoir host to the human coronavirus that causes Middle East Respiratory Syndrome (MERS)” (Bioorg Med Chem, 2015).

This assay deals with Tylonycteris bat coronavirus HKU4. The following applies: at 100 µM.

The term inhibition denotes the percentage by which the read-out fell short of the control.

Turning to `CC(C)(C)NC(=O)C(c1cccnc1)N(C(=O)c1ccc(C#N)cc1)c1ccc(C(C)(C)C)cc1` (configuration not stated), the inhibition stood at 11%.

`COc1cccc(C(=O)N(c2ccc(C(C)(C)C)cc2)C(C(=O)NC(C)(C)C)c2cccnc2)c1` (configuration not stated) showed an inhibition of 17%.

On to `CC(C)(C)NC(=O)C(c1cncnc1)N(C(=O)c1c[nH]cn1)c1ccc(C(C)(C)C)cc1` (configuration not stated), for which the inhibition worked out at 84%.

On to `CC(=O)Nc1ccc(N(C(=O)Cn2cc(-c3ccccc3)nn2)C(C(=O)NC(C)(C)C)c2ccsc2)cc1` (configuration not stated), for which the inhibition came out at 19%.

`CCC(=O)Nc1ccc(N(C(=O)Cn2c(C)nc3ccccc32)C(C(=O)NC(C)(C)C)c2ccsc2)cc1` (configuration not stated): the inhibition amounted to 8%.

`CC(C)(C)NC(=O)C(c1ccsc1)N(C(=O)c1n[nH]c2ccccc12)C1CC1` (configuration not stated): the inhibition stood at 21%.

`CC(C)(C)NC(=O)C(c1cccnc1)N(C(=O)c1cccc(O)c1)c1ccc(C(C)(C)C)cc1` (configuration not stated) showed an inhibition of 10%.

For the compound `Cc1nccn1CC(=O)N(c1ccc(C(C)(C)C)cc1)C(C(=O)NC(C)(C)C)c1ccsc1` (configuration not stated), the inhibition is 11%.

In turn, `CC(C)c1ccc(N(C(=O)c2ccc(C#N)cc2)C(C(=O)NC(C)(C)C)c2cccnc2)cc1` (configuration not stated) gave an inhibition of 28%.

In the case of `CC(C)(C)NC(=O)C(c1ccsc1)N(C(=O)Cc1cccc2ccccc12)c1ccc(C(C)(C)C)cc1` (configuration not stated), the inhibition came out at 15%.

Take `O=C(Nc1ccc(N(Cc2ccsc2)C(=O)Cn2nnc3ccccc32)cc1)C1CC1`: the inhibition turned out to be 89%.

`CC(C)(C)NC(=O)C(c1ccsc1)N(C(=O)Cn1nnc2ccccc21)c1ccc(NC(=O)c2ccno2)cc1` (configuration not stated) gave an inhibition of 76%.

In turn, `CC(C)(C)NC(=O)C(c1cccnc1)N(C(=O)c1ccc(C#N)cc1)c1ccc(OCF)cc1` (configuration not stated) returned an inhibition of 15%.

Compound `CC(C)(C)NC(=O)C(c1cccnc1)N(C(=O)c1ccco1)c1ccc(-c2ccnc(F)c2)cc1` (configuration not stated) came in with an inhibition of 16%.

`CC(C)C(=O)Nc1ccc(N(C(=O)Cn2cnc3ccccc32)C(C(=O)NC(C)(C)C)c2ccsc2)cc1` (configuration not stated) had an inhibition of 56%.

Compound `COCC(=O)Nc1ccc(N(Cc2ccsc2)C(=O)Cn2nnc3ccccc32)cc1` had an inhibition of 91%.

Take `CC(C)(C)NC(=O)C(c1cccnc1)N(C(=O)c1c[nH]c2ccccc12)C1CC1` (configuration not stated): the inhibition worked out at 49%.

In turn, `O=C(Nc1ccc(N(Cc2ccsc2)C(=O)Cn2nnc3ccccc32)cc1)c1ccccc1` gave an inhibition of 90%.

Turning to `CC(C)(C)NC(=O)C(c1cccnc1)N(C(=O)c1ccco1)c1ccc(-c2cccc(F)c2F)cc1` (configuration not stated), the inhibition was 18%.

In the case of `CC(C)(C)NC(=O)C(c1cccnc1)N(C(=O)c1ccco1)c1ccc(-c2cccn2C(=O)OC(C)(C)C)cc1` (configuration not stated), the inhibition was 17%.

`CC(C)(C)NC(=O)C(c1ccsc1)N(C(=O)c1n[nH]c2ccccc12)c1ccc(F)cc1` (configuration not stated) showed an inhibition of 11%.

In turn, `CC(C)(C)NC(=O)C(c1ccsc1)N(C(=O)Cc1cccnc1)c1ccc(F)cc1` (configuration not stated) had an inhibition of 24%.

On to `CC(C)(C)NC(=O)C(c1ccsc1)N(C(=O)Cc1cccc2ccccc12)c1ccc(OCF)cc1` (configuration not stated), for which the inhibition worked out at 17%.

Consider `CC(C)(C)NC(=O)C(c1cccnc1)N(C(=O)c1ccc(C(F)(F)F)nc1)c1ccc(OCF)cc1` (configuration not stated), for which the inhibition stood at 15%.

The compound `CC(C)(C)NC(=O)C(c1cccnc1)N(C(=O)Cc1cccc2ccccc12)c1ccc(C(C)(C)C)cc1` (configuration not stated) came in with an inhibition of 26%.

`COc1ccccc1C(=O)N(c1ccc(C(C)(C)C)cc1)C(C(=O)NC(C)(C)C)c1cccnc1` (configuration not stated) yielded an inhibition of 17%.

`CC(C)(C)NC(=O)C(c1ccsc1)N(C(=O)c1n[nH]c2ccccc12)c1ccc(C(C)(C)C)cc1` (configuration not stated) showed an inhibition of 16%.

Take `CC(C)(C)NC(=O)C(c1ccsc1)N(C(=O)Cc1c[nH]c2ccccc12)c1ccc(F)cc1` (configuration not stated): the inhibition worked out at 22%.

In turn, `CC(C)(C)NC(=O)C(c1cccnc1)N(C(=O)c1ccco1)c1ccc(C(C)(C)C)cc1` (configuration not stated) came in with an inhibition of 11%.

As for `CC(C)(C)NC(=O)C(c1ccsc1)N(C(=O)Cn1nnc2ccccc21)c1ccc(NC(=O)c2cccs2)cc1` (configuration not stated), the inhibition was 26%.

In turn, `CC(C)(C)NC(=O)[C@H](c1cccnc1)N(C(=O)c1ccco1)c1ccc(C(C)(C)C)cc1` came in with an inhibition of 65%.

With `CC(C)(C)NC(=O)[C@H](c1cccnc1)N(C(=O)c1c[nH]cn1)c1ccc(C(C)(C)C)cc1`, the inhibition amounted to 44%.

Take `Cc1noc(C)c1-c1ccc(N(C(=O)c2ccco2)C(C(=O)NC(C)(C)C)c2cccnc2)cc1` (configuration not stated): the inhibition turned out to be 28%.

Turning to `CC(C)c1ccc(N(C(=O)c2n[nH]c3ccccc23)C(C(=O)NC(C)(C)C)c2ccsc2)cc1` (configuration not stated), the inhibition was 11%.

With `CC(C)(C)NC(=O)C(c1cccnc1)N(C(=O)c1ccco1)c1ccc(Cc2ccccc2)cc1` (configuration not stated), the inhibition was 8%.

Take `CC(C)(C)NC(=O)C(c1ccsc1)N(C(=O)c1ccc(C(F)(F)F)cn1)c1ccc(F)cc1` (configuration not stated): the inhibition came to 19%.

`CCC(=O)Nc1ccc(N(C(=O)Cn2ccnc2C)C(C(=O)NC(C)(C)C)c2ccsc2)cc1` (configuration not stated) registered an inhibition of 19%.

In turn, `CC(C)(C)NC(=O)C(c1ccsc1)N(C(=O)c1ccc(C#N)cc1)C1CC1` (configuration not stated) had an inhibition of 20%.

The compound `O=C(Cn1nnc2ccccc21)N(Cc1ccsc1)c1ccc(-c2ccncc2)cc1` yielded an inhibition of 98%.

On to `CC(C)(C)NC(=O)C(c1ccsc1)N(C(=O)Cc1cccnc1)C1CC1` (configuration not stated), for which the inhibition came to 16%.

For the compound `CC(C)(C)NC(=O)C(c1cccnc1)N(C(=O)c1ccco1)c1ccc(-c2ccc[nH]2)cc1` (configuration not stated), the inhibition worked out at 31%.

For `CC(C)(C)NC(=O)C(c1ccnnc1)N(C(=O)c1ccco1)c1ccc(C(C)(C)C)cc1` (configuration not stated), the inhibition was determined as 35%.

On to `Cc1nc2ccccc2n1CC(=O)N(c1ccc(N)cc1)C(C(=O)NC(C)(C)C)c1ccsc1` (configuration not stated), for which the inhibition came to 14%.

On to `CC(C)(C)NC(=O)C(c1cccnc1)N(C(=O)c1ccco1)c1ccc(-c2ccc(C#N)cc2)cc1` (configuration not stated), for which the inhibition worked out at 14%.

With `CC(C)(C)NC(=O)C(c1ccsc1)N(C(=O)c1n[nH]c2ccccc12)c1ccc(OC(F)F)cc1` (configuration not stated), the inhibition was 17%.

`CC(C)c1ccc(N(C(=O)Cc2cccc3ccccc23)C(C(=O)NC(C)(C)C)c2cccnc2)cc1` (configuration not stated): the inhibition stood at 26%.

`CC(C)(C)NC(=O)C(c1cccnc1)N(C(=O)c1ccco1)c1ccc(-c2ccc(F)cc2F)cc1` (configuration not stated) displayed an inhibition of 16%.

Compound `CC(C)(C)C(=O)Nc1ccc(N(Cc2ccsc2)C(=O)Cn2nnc3ccccc32)cc1` registered an inhibition of 67%.

`COc1cccc(Oc2ccc(N(C(=O)c3ccco3)C(C(=O)NC(C)(C)C)c3cccnc3)cc2)c1` (configuration not stated) had an inhibition of 18%.

For `CC(C)(C)NC(=O)C(c1ccsc1)N(C(=O)Cn1cnc2ccccc21)c1ccc(C(C)(C)C)cc1` (configuration not stated), the inhibition was 15%.

`CCC(C)c1ccc(N(C(=O)c2ccco2)[C@H](C(=O)NC(C)(C)C)c2cccnc2)cc1` (some centres not stated) came in with an inhibition of 39%.

For the compound `CC(C)(C)NC(=O)C(c1cccnc1)N(C(=O)c1ccco1)C12CC3CC(CC(C3)C1)C2` (configuration not stated), the inhibition was 18%.

`CC(C)(C)NC(=O)C(c1cccnc1)N(C(=O)Cc1cccnc1)C1CC1` (configuration not stated) gave an inhibition of 48%.

As for `CC(C)(C)NC(=O)C(c1cccnc1)N(C(=O)c1cccc2c1CCCC2)C1CC1` (configuration not stated), the inhibition came to 18%.

For `CCC(=O)Nc1ccc(N(Cc2ccsc2)C(=O)Cn2nnc3ccccc32)cc1`, the inhibition turned out to be 92%.

As to `CC(C)(C)NC(=O)C(c1ccsc1)N(C(=O)c1cccc2c1CCCC2)c1ccc(C(C)(C)C)cc1` (configuration not stated), the inhibition worked out at 14%.

Compound `CC(C)C(=O)Nc1ccc(N(Cc2ccsc2)C(=O)Cn2ccnn2)cc1` gave an inhibition of 63%.
